From patent US4755594A, “N^6 -substituted adenosines” (Warner-Lambert Company, priority 1986, dated 1988)

Assays:
adenosine A1 receptor = molecular target: T1, adenosine A1 receptor (Rattus norvegicus, UniProt P25099); experiment: Adenosine Receptor Binding--A1 Receptor Affinity (RBA1), [3H]-CHA, whole brain membranes; settings: read-out: RBA-1 IC50
T1 construct: Whole brain minus cerebellum and brainstem from male Long-Evans rats; from tissue; host or cells: whole brain minus cerebellum and brainstem, male Long-Evans rats
T1 sequence (P25099 1-326): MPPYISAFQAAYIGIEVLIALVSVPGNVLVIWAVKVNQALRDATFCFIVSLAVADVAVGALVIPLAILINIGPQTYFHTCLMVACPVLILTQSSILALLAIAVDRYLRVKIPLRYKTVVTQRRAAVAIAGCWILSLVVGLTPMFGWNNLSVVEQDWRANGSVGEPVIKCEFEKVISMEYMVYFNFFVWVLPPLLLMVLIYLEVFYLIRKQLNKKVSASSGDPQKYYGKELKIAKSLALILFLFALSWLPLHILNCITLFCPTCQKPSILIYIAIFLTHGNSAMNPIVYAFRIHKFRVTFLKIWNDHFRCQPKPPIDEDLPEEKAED
Description: Adenosine Receptor Binding--A1 Receptor Affinity (RBA1 )
Whole brain minus cerebellum and brainstem from male Long-Evans rats (150-200 g) was homogenized in 30 volumes of ice-cold 0.05M Tris-HCl buffer pH 7.7 using a Brinkman Polytron PT-10, (setting number 6 for 20 seconds) and centrifuged for ten minutes at 20,000 xg (Sorvall RC-2), 4° C. The supernatant was discarded, and the pellet was resuspended and centrifuged as before. The pellet was resuspended in 20 ml Tris-HCl buffer containing two International Units/ml of adenosine deaminase (Sigma type III from calf intestinal mucosa), incubated at 37° C. for 30 minutes, then subsequently at 0° C. for ten minutes. The homogenate was again centrifuged, and the final pellet was resuspended in ice-cold 0.05M Tris-HCl buffer pH 7.7 to a concentration of 20 mg/ml original wet tissue weight and used immediately.
Tissue homogenate (10 mg/ml) was incubated in 0.05M Tris-HCl buffer pH 7.7 containing 1.0 nM [^3 H]--N^6 -cyclohexyladenosine ([^3 H]--CHA) with or without test agents in triplicate for one hour at 25° C. Incubation volume was 2 ml. Unbound [^3 H]--CHA was separated by rapid filtration under reduced pressure through Whatman glass fiber (GF/B) filters. The filters were rinsed three times with 5 ml of ice cold 0.05M Tris-HCl buffer pH 7.7. The radio-labeled ligand retained on the filter was measured by liquid scintillation spectrophotometry after shaking the filters for one hour or longer on a mechanical shaker in 10 ml of Beckman Ready-Solv HP scintillation cocktail.
Nonspecific binding was defined as the binding which occurred in the presence of 1 mM theophylline. The concentration of test agent which inhibited 50% of the specific binding (IC50) was determined by nonlinear computer curve fit. The Scatchard plot was calculated by linear regression of the line obtained by plotting the amount of radioligand bound (pmoles/gram of tissue) [formula] Since the amount of radioligand bound was a small fraction of the total amount added, free radioligand was defined as the concentration of (nM) of radioligand added to the incubation mixture. The Hill coefficient was calculated by linear regression of the line obtained by plotting the log of the bound radioligand vs the log of the [formula] The maximal number of binding sites (Bmax) was calculated from the Scatchard plot.

[1] = Mouse Activity and Screen Test Procedure (MAST): screen test; type: in vivo, Swiss-Webster male mice; settings: IP
From the text: The compounds of the invention are new chemical substances which are useful as pharmaceutical agents for the treatment of psychoses. The antipsychotic activity of representative compounds of the invention was established by the Mouse Activity and Screen Test Procedure (MAST) described below. Animals Nine unfasted Swiss-Webster male mice weighing 20-30 g are equally divided into three groups for each drug dose to be tested. That is, data for each dose level was generated by three separate groups of three mice each. Drugs A minimum of three dose levels (10, 30, and 100 mg/kg) are tested for each drug. Treatments are administered intraperitoneally one hour prior to testing. All dosages are calculated as parent compound and given in volumes of 10 ml/kg. Compounds are dissolved or suspended in 0.2% Methocel. Control animals are injected with Methocel. Testing A two part testing procedure is started one hour postinjection. First, the screen test (ST) is performed (see Pharmac. Biochem. Behav. 6, 351-353, 1977). Briefly this test consists of placing mice on individual wire screens which are then rotated 180 degrees at the start of a 60 second observation period. The number of mice falling off the inverted screen is recorded. Data The data obtained from the screen test are expressed as percent of mice falling off the screen. Data derived from locomotor activity of drug treated mice are compared to the activity of vehicle treated animals and are expressed as percent inhibition of spontaneous locomotion. All percentages reported for inhibition of locomotion (LI) are based upon data accumulated for one hour. Both phases of testing are graded: A=60-100%; C=31-59%; and N=0-30%. An overall dose rating is obtained by the following criteria: […]

SMILES | IC50 (adenosine A1 receptor) | Inhibition of screen test failure ([1]; 3 mg/kg) | Inhibition of screen test failure ([1]; 10 mg/kg) | Inhibition of screen test failure ([1]; 30 mg/kg) | Inhibition of screen test failure ([1]; 0.03 mg/kg) | Inhibition of screen test failure ([1]; 0.1 mg/kg) | Inhibition of screen test failure ([1]; 0.3 mg/kg) | Inhibition of screen test failure ([1]; 1.0 mg/kg) | Inhibition of screen test failure ([1]; 100 mg/kg)
OC[C@H]1O[C@@H](n2cnc3c(NCC4(c5ccccc5)CCCC4)ncnc32)[C@H](O)[C@@H]1O [Example 10, N6-((1-Phenylcyclopentyl)methyl)adenosine] | 110 nM | 11% | 0% | 22% |  |  |  |  | 
OC[C@H]1O[C@@H](n2cnc3c(NCC4(c5ccccc5)CCCCC4)ncnc32)[C@H](O)[C@@H]1O [Example 11, N6-((1-Phenylcyclohexyl)methyl)adenosine] | 410 nM | 11% | 0% | 0% |  |  |  |  | 
O[C@@H]1[C@H](O)[C@@H](CCl)O[C@H]1n1cnc2c(NCC3(c4ccccc4)CC3)ncnc21 [Example 5, 5'-Deoxy-5'-chloro-N6-((1-phenylcyclopropyl)methyl)adenosine] | 52 nM | 11% | 0% | 0% |  |  |  |  | 
OC[C@H]1O[C@@H](n2cnc3c(NCC4(c5cccc(Cl)c5)CC4)ncnc32)[C@H](O)[C@@H]1O [Example 2, N6-((1-(3-Chlorophenyl)cyclopropyl)methyl)adenosine] | 32 nM | 11% | 0% | 0% |  |  |  |  | 
OC[C@H]1O[C@@H](n2cnc3c(NCC4(c5ccc(Cl)cc5)CC4)ncnc32)[C@H](O)[C@@H]1O [Example 12, N6-((1-(4-Chlorophenyl)cyclopropyl)methyl)adenosine] | 70 nM | 0% | 0% | 0% |  |  |  |  | 

These reach a lower IC50 (adenosine A1 receptor). Values come first.

IC50 (adenosine A1 receptor) | Inhibition of screen test failure ([1]; 3 mg/kg) | Inhibition of screen test failure ([1]; 10 mg/kg) | Inhibition of screen test failure ([1]; 30 mg/kg) | Inhibition of screen test failure ([1]; 0.03 mg/kg) | Inhibition of screen test failure ([1]; 0.1 mg/kg) | Inhibition of screen test failure ([1]; 0.3 mg/kg) | Inhibition of screen test failure ([1]; 1.0 mg/kg) | Inhibition of screen test failure ([1]; 100 mg/kg) | SMILES
31 nM | 0% | 0% | 0% |  |  |  |  |  | OC[C@H]1O[C@@H](n2cnc3c(NCC4(c5cccc(Cl)c5)CCC4)ncnc32)[C@H](O)[C@@H]1O [Example 8, N6-((1-(3-Chlorophenyl)cyclobutyl)methyl)adenosine]
28 nM | 0% | 0% | 22% |  |  | 11% | 0% | 44% | OC[C@H]1O[C@@H](n2cnc3c(NCC4(c5ccccc5)CC4)ncnc32)[C@H](O)[C@@H]1O [Example 1, N6-((1-Phenylcyclopropyl)methyl)adenosine]
18 nM | 0% | 0% | 0% |  |  |  |  |  | O[C@@H]1[C@H](O)[C@@H](CCl)O[C@H]1n1cnc2c(NCC3(c4cccs4)CC3)ncnc21 [Example 6, 5'-Chloro-5'-deoxy-N6-((1-thien-2-ylcyclopropyl)methyl)adenosine]
16 nM | 0% | 0% |  |  |  |  | 0% |  | OC[C@H]1O[C@@H](n2cnc3c(NCC4(c5ccccc5)CCC4)ncnc32)[C@H](O)[C@@H]1O [Example 7, N6-((1-Phenylcyclobutyl)methyl)adenosine]
7.3 nM | 0% | 0% |  | 0% | 0% | 0% | 0% |  | OC[C@H]1O[C@@H](n2cnc3c(NCC4(c5cccs5)CC4)ncnc32)[C@H](O)[C@@H]1O [Example 3, N6-((1-Thien-2-ylcyclopropyl)methyl)adenosine]
5.6 nM | 0% | 0% | 0% |  |  |  |  |  | OC[C@H]1O[C@@H](n2cnc3c(NCC4(c5cccs5)CCC4)ncnc32)[C@H](O)[C@@H]1O [Example 9, N6-((1-Thien-2-ylcyclobutyl)methyl)adenosine]
